Each compound was assayed on GUMC-403 (assay: viability at highest tested concentration (max response) relative to DMSO (% of DMSO control); higher = less cytotoxic). Details: library / dose series: MIPE library, 11-point 1:3 dilution; top concentration 23 µM; 48 h.
Method in brief: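 Each figure stands for viability at the highest tested concentration compared with vehicle control. It was measured by CellTiter-Glo luminescence on a ViewLux after 48 h of exposure to 23 nL of pinned compound, with vehicle wells taken as 100% and empty wells as 0%. The cells were patient-derived GUMC-403 papilloma cells grown by conditional reprogramming, plated at 700/well in 5 μL F + Y medium in 1536-well plates.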

Row | Structure (SMILES) | viability
1 | CC[C@@]1([C@@H]2O[C@@H]([C@H]3O[C@@](O)(CO)[C@H](C)C[C@@H]3C)C[C@@H]2C)CC[C@H]([C@]2(C)CC[C@]3(C[C@H](O)[C@@H](C)[C@@H]([C@@H](C)[C@@H](OC)[C@H](C)C(=O)[O-])O3)O2)O1 | 116

Same assay, conditions: library / dose series: MIPE library, 11-point 1:3 dilution; top concentration 46.1 µM; 48 h

Row | Structure (SMILES) | viability
2 | CCOc1cc(CC(=O)N[C@@H](CC(C)C)c2ccccc2N2CCCCC2)ccc1C(=O)O | 143
3 | CCc1c(C(=O)C(N)=O)c2c(OCC(=O)O)cccc2n1Cc1ccccc1 | 103
4 | CC(C)(C)c1cc(C=C(C#N)C#N)cc(Br)c1O | 101
5 | CC[C@@]1(O)C(=O)OC\C2=C1\C=C3/N(CC4=CC5=C(C=CC(=C5CN(C)C)O)N=C34)C2=O | 66.5
6 | CCC1(c2ccccc2)C(=O)NCNC1=O | 105
7 | CCOC(=O)c1cncn1[C@H](C)c1ccccc1 | 111
8 | C[C@@H](N)c1ccc(C(=O)Nc2ccnc3[nH]ccc23)cc1 | 139
9 | OC(c1cc(C(F)(F)F)nc2c(C(F)(F)F)cccc12)C1CCCCN1 (configuration not stated) | 97.9
10 | O=C(Nc1cccc(Cl)c1)Nc1ncc(CCNc2ncnc3ccsc23)s1 | 116
11 | C/C=C(\C)C(=O)N[C@@H](c1ccccc1)[C@@H](O)C(=O)O[C@H]1C[C@@]2(O)[C@@H](OC(=O)c3ccccc3)[C@@H]3[C@]4(OC(C)=O)CO[C@@H]4C[C@H](O)[C@@]3(C)C(=O)[C@H](OC(C)=O)C(=C1C)C2(C)C | 111
12 | C1Cc2[nH]nc(-c3nn[nH]n3)c2C1 | 118
13 | CC1(C)O[C@H]2CC(=O)OC[C@]23[C@H]2CC[C@@]4(C)[C@H](c5ccoc5)OC(=O)[C@H]5O[C@]54[C@]2(C)C(=O)C[C@@H]13 | 139
14 | O=C(NCC1CN(c2ccc(N3CCOCC3=O)cc2)C(=O)O1)c1ccc(Cl)s1 (configuration not stated) | 127
15 | CO[C@H]1C[C@H]2OC[C@@]2(OC(C)=O)[C@H]3[C@H](OC(=O)C4=CC=CC=C4)[C@]5(O)C[C@H](OC(=O)[C@H](O)[C@@H](NC(=O)OC(C)(C)C)C6=CC=CC=C6)/C(=C(/[C@@H](OC)C(=O)[C@]13C)C5(C)C)C | 88.5
16 | COc1cc2c(cc1-c1c(C)noc1C)ncc1[nH]c(=O)n([C@H](C)c3ccccn3)c12 | 69.1
17 | O=C(O)c1ccc(O)c2ncc(N3CCOCC3)cc12 | 96
18 | CNc1nc(Nc2ccc(C(=O)N3CCOCC3)cc2OC)ncc1Cl | 108
19 | C[N]1C=C(C=N1)C2=CC=C3N=CC\4=C(N(C(=O)\C=C4)C5=CC6=C(CCN6C(=O)C=C)C=C5)C3=C2 | 104
20 | O=C(CN1C(=O)C2(CCCC2)NC[C@H]1c1cc(F)cc(F)c1)Nc1ccc2c(c1)C[C@@]1(C2)C(=O)Nc2ncccc21 | 148
21 | O=C(O)/C=C/c1ccc(Cn2ccnc2)cc1 | 124
22 | C=C(C)[C@@H]1CC[C@]2(C)CC[C@]3(C)[C@H](CC[C@@H]4[C@@]5(C)CC[C@H](O)C(C)(C)[C@@H]5CC[C@]43C)[C@@H]12 | 135
23 | Cc1c(C)c2c(c(C)c1O)CCC(C)(COc1ccc(CC3SC(=O)NC3=O)cc1)O2 (configuration not stated) | 82
24 | CC#CCn1c(N2CCC[C@@H](N)C2)nc2c1c(=O)n(Cc1nc(C)c3ccccc3n1)c(=O)n2C | 111
25 | CCN(CC)CCCCNc1nc2cc(Cl)c(Cl)cc2nc1-c1ccc(-c2cccs2)s1 | 92.1
26 | CCCCC(C)(C)[C@H](O)/C=C/[C@H]1[C@H](O)CC(=O)[C@@H]1C/C=C\CCCC(=O)O | 104
27 | O=C(O)/C=C/c1ccc(O)c(O)c1 | 120

Row | Structure (SMILES) | viability
28 | C/C=C(/C)C(=O)O[C@H]1C(C)=C[C@]23C(=O)[C@@H](C=C(CO)[C@@H](O)[C@]12O)[C@H]1[C@@H](C[C@H]3C)C1(C)C | 106
29 | CC(C)Oc1ccc(C(=O)N[C@H](CNC(=O)CN(C)C)Cc2ccc(-c3cn4cccc([C@H](C)O)c4n3)cc2)cc1Cl | 98.1
30 | CC\1=C(C(\N=C(/N1)C2=CC(=NC=C2)Cl)C3=C(F)C=C(Cl)C=C3)/C(=O)NC4=C(F)C=C5[NH]N=CC5=C4 (configuration not stated) | 101
31 | CC(=O)N(C)c1cccc(-c2ccnc3c(C(=O)c4cccs4)cnn23)c1 | 106
32 | OC1=CC2=C(C(=C1)O)C(=O)\C(=C(/O2)C3=CC(=C(O)C(=C3)O)O)O | 102
33 | CC(=O)NCCC(=O)N[C@@H](CCC(N)=O)C(=O)N[C@@H](CO)C(=O)N[C@@H](CCC(N)=O)C(=O)N[C@@H](CCC(N)=O)C(=O)N[C@H](C(=O)N[C@@H](Cc1ccccc1)C(=O)N[C@]1(C)CCCCCC/C=C\CCC[C@@](C)(C(=O)N[C@@H](CCC(N)=O)C(=O)N[C@@H](CC(N)=O)C(N)=O)NC(=O)[C@H](CC(C)C)NC(=O)[C@H](CC(C)C)NC(=O)[C@@H](CCCNC(=N)N)NC(=O)[C@H](Cc2c[nH]c3ccccc23)NC(=O)[C@H](CC(C)C)NC(=O)[C@H](CC(N)=O)NC1=O)[C@H](C)O | 99.6
34 | C[C@@H]1[C@H](O)[C@@H](C)C=CC=CCCC=CC=CC=CC=C[C@H](O[C@H]2O[C@@H](C)[C@H](O)[C@@H](N)[C@H]2O)CC2O[C@](O)(C[C@@H](O)[C@H](O)CC[C@@H](O)C[C@@H](O)C[C@@H](O)CC(=O)O[C@H]1C)C[C@H](O)[C@H]2C(=O)O | 115
35 | CN(CCOc1ccc(NS(C)(=O)=O)cc1)CCc1ccc(NS(C)(=O)=O)cc1 | 127
36 | ClC1=CC(=CC=C1)N2CCN(CCCN3\N=C4\C=C/C=C\N4C3=O)CC2 | 103
37 | O=C1NC(=O)/C(=C/c2ccc(-c3ccc(F)cc3O)o2)S1 | 83
38 | O=C1Nc2ccc(I)cc2/C1=C/c1cc(Br)c(O)c(Br)c1 | 146
39 | CC(C)(C)C(=O)Oc1ccc([S+](=O)([O-])Nc2ccccc2C(=O)NCC(=O)O)cc1 | 113
40 | COc1cc(C(=O)NS(=O)(=O)c2ccccc2C)ccc1Cc1cn(C)c2ccc(NC(=O)OC3CCCC3)cc12 | 28.5
41 | COc1cc(OC)c(NC(=O)Nc2cc(C)on2)cc1Cl | 131
42 | O=C(O)CCCc1ccc(N(CCCl)CCCl)cc1 | 111
43 | OC1=CC=C(C=C1)\C2=C\OC3=C(C=CC(=C3)O)C2=O | 133
44 | Cl.Cl.Cl.O[C@@H](COc1cccc2ncccc12)CN1CCN([C@@H]2c3ccccc3[C@@H]3[C@H](c4ccccc42)C3(F)F)CC1 | 70.9
45 | CCCCc1oc2ccccc2c1C(=O)c1cc(I)c(OCCN(CC)CC)c(I)c1 | 95.4
46 | O=C(O)C(=O)Nc1cccc(-c2nnn[nH]2)c1 | 120
47 | CC(C)(C)NC(=O)Nc1cccc(Nc2ncc(F)c(NC(C)(C)CO)n2)c1 | 121
48 | COCC1(CO)C(=O)C2CCN1CC2 (configuration not stated) | 108
49 | CN(C)C(=O)C(CCN1CCC(O)(c2ccc(Cl)cc2)CC1)(c1ccccc1)c1ccccc1 | 103
50 | CCc1ccc(/C=C2/SC(=S)NC2=O)cc1 | 106
51 | OC1CCC(Nc2ncc3nc(Nc4c(F)cc(F)cc4F)n([C@@H]4CCOC4)c3n2)CC1 (some centres not stated) | 95.5
52 | COc1cc(OC)c(/C=C/[S+](=O)([O-])Cc2ccc(OC)c(NCC(=O)[O][Na])c2)c(OC)c1 | 118
53 | CC/C(=C(\c1ccccc1)c1ccc(OCCN(C)C)cc1)c1ccccc1 | 96

Row | Structure (SMILES) | viability
54 | COc1ccc2c(c[n+](C)c3c4cc5c(cc4ccc23)OCO5)c1OC | 38.7
55 | COc1cc(OC)c(C(=O)CCCN2CCCC2)c(OC)c1 | 112
56 | COc1ccc2c(c1)CC[C@@H](CN(C)CC(=O)O)[C@H]2c1ccccc1 | 78.3
57 | COc1ccc(C(=O)CC2(O)C(=O)Nc3c(Cl)ccc(Cl)c32)cc1 (configuration not stated) | 113
58 | CC(C)=CCC/C(C)=C/CC/C(C)=C/CC/C(C)=C/CC/C(C)=C/CC/C(C)=C/CC/C(C)=C/CC/C(C)=C/CC/C(C)=C/CO | 104
59 | Cn1cnc2c1c(=O)[nH]c(=O)n2C | 127
60 | COc1ccccc1N1CCN(CC(O)COc2cccc3ccccc23)CC1 (configuration not stated) | 99.1
61 | FC(F)(F)c1ccc(/C=C/c2nc(COc3ccc(CCCCn4ccnn4)cc3)co2)cc1 | 98.1
62 | Fc1cc(-c2cccc3ncc(-c4cnn(C5CCNCC5)c4)nc23)cc(F)c1CN1CCOCC1 | 108
63 | CC(C)(C)OC(=O)N[C@H]1CCCCC/C=C\[C@@H]2C[C@@]2(C(=O)N[S+](=O)([O-])C2CC2)NC(=O)[C@@H]2C[C@@H](OC(=O)N3Cc4cccc(F)c4C3)CN2C1=O | 138
64 | OC(=O)\C1=C\N(C2=CC=C(F)C=C2)C3=C(C=C(F)C(=C3)N4CCNCC4)C1=O | 120
65 | CC(C)CNc1ccnc(NCc2csc(-c3ccccc3)n2)n1 | 100
66 | COC(=O)C\1=C(C)\N\C(=C(/C1C2=CC=CC3=NON=C23)C(=O)OC(C)C)C (configuration not stated) | 89.7
67 | OC1=CC2=C(C=C1)C(=O)\C(=C(O2)\C3=CC(=C(O)C=C3)O)O | 72.6
68 | C[C@@H](NCc1cc2ccccc2[nH]1)c1cccc2ccccc12 | 108
69 | O=[S+]([O-])(CC1CS1)c1ccc(Oc2ccccc2)cc1 (configuration not stated) | 122
70 | Cn1cc(-c2ccc3nnc(Sc4ccc5ncccc5c4)n3n2)cn1 | 108
71 | O=C(Nc1nc2cccc(-c3ccc(CN4CC[S+](=O)([O-])CC4)cc3)n2n1)C1CC1 | 40.4
72 | N[S+](=O)([O-])c1cc(Cl)c(Cl)c([S+](N)(=O)[O-])c1 | 109
73 | NC(=O)c1ccc(I)c([N+](=O)[O-])c1 | 122
74 | O=[N+]([O-])c1ncc[nH]1 | 82.9
75 | NC(=O)c1ccc(N(C(N)=O)c2c(F)cccc2F)nc1-c1ccc(F)cc1F | 109
76 | COc1ccc(N(C(=O)Oc2c(C)cccc2C)c2ccnc(Nc3ccc(N4CCN(C)CC4)cc3)n2)c(OC)c1 | 83.2
77 | CC/1=C/N([C@@H]2C[C@@H](O)[C@H](CO)O2)C(=O)NC1=O | 117
